Results on 20 compounds are retold here after patent US20070244155A1 (AMGEN INC., priority 2006, published 2007).

The assay concerns the target T1, human GPR40 (Homo sapiens, UniProt O14842).
T1 construct: expressed in transfected cells; host or cells: CHO cells
As to the kind of experiment: Cell-based aequorin assay using human GPR40. The conditions noted are these: CHO cells transfected with GPR40 and aequorin expression vectors; aequorin luminescence; activation of human GPR40; read-out: Relative EC50. The method, then: A cell-based aequorin assay may be employed to characterize the modulatory activity of compounds on the GPR40 signaling pathway. In an exemplary assay, CHO cells are transfected in a 15 cm plated containing 14 million cells with 5 μg of GPR40 expression vector and 5 μg of Aequorin expression vector (Euroscreen) using Lipofectamine 2000 (Invitrogen). After 17-24 hours post-transfection, cells are washed with phosphate buffered saline (PBS) and detached from the tissue culture dish with 2 mL of trypsin (0.25%(w/v)). Trypsinization is halted with 28 mL of Hanks Buffered Salt Solution containing 20 mM Hepes (H/HBSS) and 0.01% fatty acid-free bovine serum albumin (BSA) or 0.625% fatty acid-free human serum albumin (HSA). Coelantrazine is added to 1 ug/mL and the cells are incubated for 2 hours at room temperature. Cells are gently mixed every 15 minutes. Compounds are dissolved in dimethyl sulfoxide for preparation of 10 mM stock solutions. Compounds are diluted in H/HBSS containing either 0.01% BSA or 0.625% HSA. Serial dilutions of the test compounds are prepared to determine dose response. Aequorin luminescence measurements are made using an EG&G Berthold 96-well luminometer and the response is measured over a 20 second interval after cells and compounds are mixed. The area-under-curve from 2-20 seconds is plotted to determine dose response. The EC50 (effective concentration to reach 50% maximal response) is determined from the dose response plot. Table 1 includes representative data (EC50 values) obtained for exemplary compounds of the invention for the relative activation of human GPR40. […] Therefore, in some embodiments, the invention provides any of the compounds listed in Table 1 individually or as members of a group and pharmaceutically acceptable salts, esters, solvates, tautomers, stereoisomers, and/or prodrugs thereof.

Where only a bound is given, the exact number is not on record here.

T1 sequence (O14842 whole entry): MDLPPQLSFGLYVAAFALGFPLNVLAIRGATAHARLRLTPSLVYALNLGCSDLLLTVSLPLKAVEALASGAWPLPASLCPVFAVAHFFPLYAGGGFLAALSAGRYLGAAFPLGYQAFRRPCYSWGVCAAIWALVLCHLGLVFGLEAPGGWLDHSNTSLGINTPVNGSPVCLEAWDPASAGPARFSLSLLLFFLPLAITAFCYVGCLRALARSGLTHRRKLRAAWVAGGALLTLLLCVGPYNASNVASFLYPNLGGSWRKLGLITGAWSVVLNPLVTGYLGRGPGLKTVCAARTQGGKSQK

The term EC50 denotes the concentration giving half of the maximal effect. `O=C(O)C1CCc2cc(OCCOc3cccc(C(F)(F)F)c3)ccc2C1` (centres unmarked) [Example 30]: the EC50 was 1000 to 10000 nM.

`C=C1COc2cc(OCc3ccc(-c4cc(C)ccc4OCCCC)cc3)ccc2C1CC(=O)O` (racemic) [Example 35]: the EC50 fell in the range of 100 to 1000 nM. For the compound `CCCCOc1ccc(C)cc1-c1ccc(COc2ccc3c(c2)OCC(C)C3CC(=O)O)cc1` (racemic) [Example 40], the EC50 fell in the range of 100 to 1000 nM. Take `O=C(O)C(F)(F)C1CCCc2cc(OCc3cccc(-c4ccc(C(F)(F)F)cc4)c3)ccc21` (centres unmarked) [Example 32, Difluoro-[6-(4′-trifluoromethyl-biphenyl-3-ylmethoxy)-1,2,3,4-tetrahydro-naphthalen-1-yl]-acetic acid]: the EC50 is 1000 to 10000 nM. Turning to `COc1cccc(-c2ccc(COc3ccc4c(c3)CCC[C@@H]4CC(=O)O)cc2)c1` [Example 58, (R)-[6-(3′-Methoxy-biphenyl-4-ylmethoxy)-1,2,3,4-tetrahydro-naphthalen-1-yl]-acetic acid], the EC50 fell in the range of 1000 to 10000 nM. Regarding `CCCCOc1ccc(C)cc1-c1ccc(COc2ccc3c(c2)CCCC3CC(=O)O)cc1` (racemic) [Example 1, (R/S)-[6-(2′-Butoxy-5′-methyl-biphenyl-4-ylmethoxy)-1,2,3,4-tetrahydro-naphthalen-1-yl]-acetic acid], the EC50 fell in the range of 100 to 1000 nM. With `Cc1ccc(-c2nc(C)c(COc3ccc4c(c3)CC(C)C4CC(=O)O)s2)cc1` (mixture of isomers) [Example 28], the EC50 is 1000 to 10000 nM. Regarding `CC1Cc2cc(OCc3cccc(-c4ccc(C(F)(F)F)cc4)c3)ccc2C1CC(=O)O` (mixture of isomers) [Example 26], the concentration for a half-maximal effect (EC50) lay in the range of 1000 to 10000 nM. Regarding `O=C(O)C[C@H]1CCCc2cc(OCc3cccc(-c4ccc(C(F)(F)F)cc4)c3)ccc21` [Example 6], the EC50 lay within 1000 to 10000 nM. The result for `O=C(O)[C@@H]1CCOc2cc(OCc3cccc(-c4ccc(C(F)(F)F)cc4)c3)ccc2C1` [Example 63] reads 1000 to 10000 nM; that for `C=C1CCOc2cc(OCc3ccccc3)ccc2C1CC(=O)O` (racemic) [Example 43, (R/S)-2-(8-(benzyloxy)-4-methylene-2,3,4,5-tetrahydrobenzo[b]oxepin-5-yl)acetic acid], 100 to 1000 nM.

On to `CCCCOc1ccc(C)cc1-c1ccc(COc2ccc3c(c2)C(CC(=O)O)CCC3)cc1` (centres unmarked) [Example 18], for which the EC50 was in the range of 1000 to 10000 nM.

For the compound `CCOc1ccc(F)c(-c2ccc(COc3ccc4c(c3)CCCC4CC(=O)O)cc2)c1` (stereo in doubt) [Example 60, (S)-[6-(5′-Ethoxy-2′-fluoro-biphenyl-4-ylmethoxy)-1,2,3,4-tetrahydro-naphthalen-1-yl]-acetic acid], the EC50 was 1000 to 10000 nM. For the compound `Cc1c(Cl)cccc1-c1cccc(COc2ccc3c(c2)C(=O)N(C)C3CC(=O)O)c1` (racemic) [Example 69, (R/S)-(5-(((3′-chloro-2′-methyl-1,1′-biphenyl-3-yl)methyl)oxy)-2-methyl-3-oxo-2,3-dihydro-1H-isoindol-1-yl)acetic acid], the EC50 was 100 to 1000 nM.

For the compound `CCCCOc1ccc(C)cc1-c1ccc(COc2ccc3c(c2)CCC(C(=O)O)C3)cc1` (racemic) [Example 29, (R/S)-6-(2′-Butoxy-5′-methyl-biphenyl-4-ylmethoxy)-1,2,3,4-tetrahydro-naphthalene-2-carboxylic acid], the EC50 lay within 100 to 1000 nM. To `COc1cccc(-c2ccc(COc3ccc4c(c3)CCCC4CC(=O)O)cc2)c1` (centres unmarked) [Example 7] belongs less than 100 nM; to `COc1ccc(COc2ccc3c(c2)CCC(=O)N3CCC(=O)O)cc1` [Example 50, 3-[6-(4-Methoxy-benzyloxy)-2-oxo-3,4-dihydro-2H-quinolin-1-yl]-propionic acid], 1000 to 10000 nM; to `CCCCOc1ccc(C)cc1-c1ccc(COc2ccc3c(c2)CCC[C@H]3CC(=O)O)cc1` [Example 4], less than 100 nM. Turning to `COc1cccc(-c2ccc(COc3ccc4c(c3)CCC4CC(=O)O)cc2)c1` (centres unmarked) [Example 13], the EC50 was 100 to 1000 nM.

Take `O=C(O)CC1CCc2cc(OCc3cccc(-c4ccc(C(F)(F)F)cc4)c3)ccc21` (centres unmarked) [Example 15]: the EC50 lay within 1000 to 10000 nM.
